Assays:
human α7 receptor = target: T1, human α7 receptor (Homo sapiens, UniProt P36544); assay: α7 NNR flux assay (FDSS Ca assay, positive allosteric modulation of acetylcholine response); assay type: cell-based; details: human α7 receptor stably expressed in rat GH4C1 cells; acetylcholine 20 μM; % modulation relative to PNU-120596 set to 100%
T1 construct: host or cells: rat GH4C1 cell line
Description: The nicotinic acetylcholine receptor α7 is a calcium-permeable ion channel, whose activity can be measured by over expression in mammalian cells or oocytes. In this version of the assay, the human α7 receptor is stably expressed in the rat GH4C1 cell line. The assay was used to identify positive allosteric modulators (PAMs) of the α7 receptor. Activation of the channel was measured by loading cells with the calcium-sensitive fluorescent dye. Calcium-4 (Assay kit from Molecular Devices), and then measuring real-time changes, in fluorescence upon treatment with test compounds.
The cell line ChanClone GH4C1-nAChRalpha7 from Genionics was seeded from frozen stock in 384-well plates in culture media 2-3 days before experiment to form an approximately 80% confluent layer on the day of experiment.
The cell culture were split into “22.5 cm×22.5 cm”-plates with approximately 100×10^3 cells/cm^2. After four days incubation in a humidified incubator at 37° C. and 5% CO2, it had grown to an 80-90% confluent layer, and the cells were harvested.
Two or three days before the experiment the cells were seeded in 384 well plates from Greiner bio-one (781946, CELLCOAT, Poly-D-Lysine, black, μClear).
The cells were seeded in 384 well plates with 30 μL/well (30000 cells/well) while stirring the cell suspension or otherwise preventing the cells from precipitating.
The loading buffer was 5% v/v Calcium-4 Kit and 2.5 mM Probenecid in assay buffer.
Culture media was removed from the cell plates and 20 μL loading buffer was added in each well. The cell plates were placed in trays and incubated 90 minutes in the incubator (37° C.). Thereafter the plates were incubated 30 minutes at room temperature, still protected from light.
The assay buffer was HBSS with 20 mM HEPES, pH 7.4 and 3 mM CaCl2.
[…] 10 mM compound solution in DMSO was diluted in 50 μL assay buffer. The final test concentrations in the cell plates were 20-10-5-2.5-1.25-0.625-0.312-0.156-0.078-0.039 μM. Assay buffer and 3 μM PNU-120596 were used for control. The agonist acetylcholine was added to a final concentration of 20 μM (˜EC100). In the FDSS7000 the Ex480-Em540 was measured with 1 second intervals. The baseline was made of 5 frames before addition of test compounds, and 95 frames more were made before addition of acetylcholine. The measurement stopped 30 frames after the 2nd addition. Raw data for each well were collected as “the maximum fluorescence count” in the interval 100-131 seconds and as “the average fluorescence count” in the interval 96-100 seconds. The positive allosteric modulation in the 2nd addition was the enhancement of agonist response with test compound compared to agonist alone.
Results were calculated as % modulation of test compound compared to the reference PNU-120596 set to 100%.

T1 sequence (P36544 23-502): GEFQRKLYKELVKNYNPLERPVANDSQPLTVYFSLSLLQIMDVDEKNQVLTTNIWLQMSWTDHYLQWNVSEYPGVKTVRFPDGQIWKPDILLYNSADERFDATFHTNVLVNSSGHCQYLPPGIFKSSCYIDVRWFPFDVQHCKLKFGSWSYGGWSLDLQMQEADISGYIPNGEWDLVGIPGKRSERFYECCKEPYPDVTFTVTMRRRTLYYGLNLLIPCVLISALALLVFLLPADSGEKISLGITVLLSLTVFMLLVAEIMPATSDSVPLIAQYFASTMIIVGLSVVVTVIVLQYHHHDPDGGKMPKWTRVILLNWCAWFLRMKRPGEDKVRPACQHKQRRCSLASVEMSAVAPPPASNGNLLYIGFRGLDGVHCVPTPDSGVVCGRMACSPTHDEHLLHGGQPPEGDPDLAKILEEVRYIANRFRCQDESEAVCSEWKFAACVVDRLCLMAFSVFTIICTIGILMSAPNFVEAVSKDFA

EC50 (human α7 receptor)	melting point	Structure (SMILES)
5 µM	172 to 174 °C	COc1nccc(C)c1NC(=O)c1cc(C)nc2c1c(C)nn2-c1ccccc1 [Compound 27, 3,6-Dimethyl-1-phenyl-1H-pyrazolo[3,4-b]pyridine-4-carboxylic acid (2-methoxy-4-methyl-pyridin-3-yl)-amide]
3.9 µM	224 to 227 °C	COc1ccc(-n2nc(C)c3c(C(=O)Nc4c(C)ccnc4C)cc(C)nc32)cc1 [Compound 1, 1-(4-Methoxy-phenyl)-3,6-dimethyl-1H-pyrazolo[3,4-b]pyridine-4-carboxylic acid (2,4-dimethyl-pyridin-3-yl)-amide]
6.2 µM	227 to 228 °C	Cc1cc(C(=O)Nc2cnccc2C)c2c(C)nn(-c3ccccc3)c2n1 [Compound 32, 3,6-Dimethyl-1-phenyl-1H-pyrazolo[3,4-b]pyridine-4-carboxylic acid (4-methyl-pyridin-3-yl)-amide]
5.6 µM	208 to 209 °C	Cc1cc(C(=O)Nc2cccnc2C)c2c(C)nn(-c3ccccc3)c2n1 [Compound 31, 3,6-Dimethyl-1-phenyl-1H-pyrazolo[3,4-b]pyridine-4-carboxylic acid (2-methyl-pyridin-3-yl)-amide]

Source: patent US20130005743A1, “New positive allosteric modulators of nicotinic acetylcholine receptor” (H. Lundbeck A/S, priority 2011, published 2013)
